Measured values: patent US9682977B2, “Bicyclic heteroaryl indole analogues useful as ROR gamma modulators” (Glenmark Pharmaceuticals S.A., priority 2013, dated 2017)
Like-named read-outs stand apart in the source and are kept apart here.

Target: T1, GST-tagged ROR gamma ligand binding domain (LBD) (Homo sapiens, UniProt P51449)
T1 construct: purchased Invitrogen
T1 sequence (P51449 269-508 limits assumed): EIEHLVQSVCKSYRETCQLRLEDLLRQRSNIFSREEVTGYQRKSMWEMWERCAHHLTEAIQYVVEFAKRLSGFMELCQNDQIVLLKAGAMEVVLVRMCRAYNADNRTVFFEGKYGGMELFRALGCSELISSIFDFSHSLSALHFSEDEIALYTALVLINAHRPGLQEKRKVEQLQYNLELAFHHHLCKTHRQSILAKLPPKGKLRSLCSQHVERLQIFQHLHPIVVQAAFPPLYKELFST
Experiment: TR-FRET assay for ROR gamma (Lantha Screen, co-activator peptide recruitment)
Assay type: biochemical
Details: for inhibition at 1 µM: read-out: % inhibition at 1 μM; for inhibition at 10 µM: read-out: % inhibition at 10 μM

[1] = class symbols, from dose response curve, read-out: IC50 value
[2] = compound concentration 1 μM, TR-FRET ratio 520/495, percent of control
[3] = compound concentration 10 μM, TR-FRET ratio 520/495, percent of control

Row | Structure (SMILES) | IC50 [1] [µM] | inhibition at 1 µM [2] [%] | inhibition at 10 µM [3] [%] | IC50 [µM] | inhibition at 1 µM [%] | inhibition at 10 µM [%]
1 | Cc1ccccc1Oc1nn(-c2ccc(C(=O)O)cc2)c2ccccc12 [Example 1, 4-[3-(2-Methylphenoxy)-1H-indazol-1-yl]benzoic acid] | < 0.05 | 90 | 96.3 |  |  | 
2 | O=C(O)c1ccc(-n2nc(Oc3ccccc3C(F)(F)F)c3ccccc32)cc1 [Example 2, 4-{3-[2-(Trifluoromethyl)phenoxy]-1H-indazol-1-yl}benzoic acid] | < 0.05 | 96.9 | 98.4 |  |  | 
3 | Cc1cccc(Oc2nn(-c3ccc(C(=O)O)cc3)c3ccccc23)c1 [Example 3, 4-[3-(3-Methylphenoxy)-1H-indazol-1-yl]benzoic acid] |  | 23.4 | 34.6 |  |  | 
4 | O=C(O)c1ccc(-n2nc(Oc3ccccc3)c3ccccc32)cc1 [Example 4, 4-(3-Phenoxy-1H-indazol-1-yl)benzoic acid] |  | 31.2 | 37 |  |  | 
5 | O=C(O)c1ccc(-n2nc(Oc3c(Cl)cccc3Cl)c3ccccc32)cc1 [Example 5, 4-[3-(2,6-Dichlorophenoxy)-1H-indazol-1-yl]benzoic acid] | < 0.05 | 98.4 | 99 |  |  | 
6 | O=C(O)c1ccc(-n2nc(Oc3c(Cl)cccc3Cl)c3ccccc32)c(F)c1 [Example 6, 4-[3-(2,6-Dichlorophenoxy)-1H-indazol-1-yl]-3-fluorobenzoic acid] | < 0.05 | 99.2 | 99.6 |  |  | 
7 | O=C(O)c1ccc(-n2nc(Oc3c(Cl)cccc3C(F)(F)F)c3ccccc32)c(F)c1 [Example 7, 4-{3-[2-Chloro-6-(trifluoromethyl)phenoxy]-1H-indazol-1-yl}-3-fluorobenzoic acid] | < 0.05 | 95.3 | 94.8 |  |  | 
8 | O=C(O)c1ccc(-n2nc(Oc3ccccc3C(F)(F)F)c3ccccc32)c(F)c1 [Example 8, 3-Fluoro-4-{3-[2-(trifluoromethyl)phenoxy]-1H-indazol-1-yl}benzoic acid] | < 0.05 | 96.4 | 98.2 |  |  | 
9 | O=C(O)c1ccc(-n2nc(Oc3ccc(Cl)cc3C(F)(F)F)c3ccccc32)c(F)c1 [Example 9, 4-{3-[4-Chloro-2-(trifluoromethyl)phenoxy]-1H-indazol-1-yl}-3-fluorobenzoic acid] | > 0.1 | 86.5 | 96.9 |  |  | 
10 | O=C(O)c1ccc(-n2nc(Oc3c(Cl)cccc3C(F)F)c3ccccc32)c(F)c1 [Example 10, 4-{3-[2-Chloro-6-(difluoromethyl)phenoxy]-1H-indazol-1-yl}-3-fluorobenzoic acid] | < 0.05 | 100 | 100 |  |  | 
11 | O=C(O)c1ccc(-n2nc(Oc3c(Cl)cccc3Cl)c3cccc(F)c32)c(F)c1 [Example 11, 4-[3-(2,6-Dichlorophenoxy)-7-fluoro-1H-indazol-1-yl]-3-fluorobenzoic acid] | < 0.05 | 98.1 | 97.8 |  |  | 
12 | O=C(O)c1ccc(-n2nc(Oc3c(Cl)cccc3C(F)F)c3cccc(F)c32)c(F)c1 [Example 12, 4-{3-[2-Chloro-6-(difluoromethyl)phenoxy]-7-fluoro-1H-indazol-1-yl}-3-fluorobenzoic acid] | < 0.05 | 94.4 | 95.1 |  |  | 
13 | O=C(O)c1ccc(-n2nc(Oc3c(Cl)cccc3C3CC3)c3ccccc32)c(F)c1 [Example 13, 4-[3-(2-Chloro-6-cyclopropylphenoxy)-1H-indazol-1-yl]-3-fluorobenzoic acid] | < 0.05 | 91.7 | 91.7 |  |  | 
14 | O=C(O)c1ccc(-n2nc(Oc3c(Cl)cccc3C3CC3)c3cccc(F)c32)c(F)c1 [Example 14, 4-[3-(2-Chloro-6-cyclopropylphenoxy)-7-fluoro-1H-indazol-1-yl]-3-fluorobenzoic acid] | < 0.05 | 91.4 | 91.2 |  |  | 
15 | O=C(O)c1ccc(-n2cc(C(=O)c3ccccc3F)c3ccccc32)cc1 [Example 15, 4-{3-[(2-Fluorophenyl)carbonyl]-1H-indol-1-yl}benzoic acid] | > 0.1 | 76.4 | 95.8 |  |  | 
16 | O=C(O)c1ccc(-n2cc(C(=O)c3c(Cl)cccc3Cl)c3ccccc32)cc1 [Example 16, 4-{3-[(2,6-Dichlorophenyl)carbonyl]-1H-indol-1-yl}benzoic acid] |  |  |  | < 0.05 | 96 | 97.2
17 | O=C(O)c1ccc(-n2cc(C(=O)c3ccccc3Cl)c3ccccc32)cc1 [Example 17, 4-{3-[(2-Chlorophenyl)carbonyl]-1H-indol-1-yl}benzoic acid] |  |  |  | 0.05 to 0.1 | 84.9 | 96

Row | Structure (SMILES) | IC50 [1] [µM] | inhibition at 1 µM [2] [%] | inhibition at 10 µM [3] [%] | IC50 [µM] | inhibition at 1 µM [%] | inhibition at 10 µM [%]
18 | O=C(O)c1ccc(-n2cc(C(=O)c3c(F)cccc3F)c3ccccc32)cc1 [Example 18, 4-{3-[(2,6-Difluorophenyl)carbonyl]-1H-indol-1-yl}benzoic acid] |  |  |  | 0.05 to 0.1 | 81 | 94.5
19 | O=C(O)c1ccc(-n2cc(C(=O)c3ccccc3Cl)c3ccccc32)c(F)c1 [Example 20, 4-{3-[(2-Chlorophenyl)carbonyl]-1H-indol-1-yl}-3-fluorobenzoic acid] | < 0.05 | 95.7 | 100 |  |  | 
20 | O=C(O)c1ccc(-n2cc(C(=O)c3c(Cl)cccc3C(F)(F)F)c3ccccc32)c(F)c1 [Example 21, 4-{3-[2-Chloro-6-(trifluoromethyl)benzoyl]-1H-indol-1-yl}-3-fluorobenzoic acid] |  |  |  | < 0.05 | 92.2 | 92.4
21 | O=C(O)c1ccc(-n2cc(C(=O)c3c(Cl)cccc3Cl)c3c(F)cccc32)c(F)c1 [Example 22, 4-[3-(2,6-Dichlorobenzoyl)-4-fluoro-1H-indol-1-yl]-3-fluorobenzoic acid] |  |  |  | < 0.05 | 96.8 | 99.3
22 | O=C(O)c1ccc(-n2cc(C(=O)c3c(Cl)cccc3Cl)c3cc(F)ccc32)c(F)c1 [Example 23, 4-[3-(2,6-Dichlorobenzoyl)-5-fluoro-1H-indol-1-yl]-3-fluorobenzoic acid] | < 0.05 | 98.2 | 96.7 |  |  | 
23 | O=C(O)c1ccc(-n2cc(C(=O)c3c(Cl)cccc3Cl)c3ccc(F)cc32)c(F)c1 [Example 24, 4-[3-(2,6-Dichlorobenzoyl)-6-fluoro-1H-indol-1-yl]-3-fluorobenzoic acid] | < 0.05 | 95.8 | 97.8 |  |  | 
24 | CN(C)C(=O)c1ccc2c(C(=O)c3c(Cl)cccc3Cl)cn(-c3ccc(C(=O)O)cc3F)c2c1 [Example 26, 4-[3-(2,6-Dichloro-benzoyl)-6-dimethylcarbamoyl-indol-1-yl]-3-fluoro-benzoic acid] |  |  |  |  | 31.3 | 33.7
25 | O=C(O)c1ccc(-n2cc(C(=O)c3c(Cl)cccc3Cl)c3cccnc32)c(F)c1 [Example 27, 4-[3-(2,6-Dichlorobenzoyl)-1H-pyrrolo[2,3-b]pyridin-1-yl]-3-fluorobenzoic acid] | < 0.05 | 95.6 | 97.9 |  |  | 
26 | O=C(O)c1ccc(-n2nc(C(=O)c3ccccc3)c3ccccc32)cc1 [Example 28, 4-[3-(Phenylcarbonyl)-1H-indazol-1-yl]benzoic acid] |  | 30.2 | 62.9 |  |  | 
27 | O=C(O)c1ccc(-n2nc(C(=O)c3c(Cl)cccc3Cl)c3ccccc32)cc1 [Example 29, 4-[3-(2,6-Dichlorobenzoyl)-1H-indazol-1-yl]benzoic acid] | < 0.05 | 96.9 | 94.3 |  |  | 
28 | O=C(O)c1ccc(-n2nc(C(=O)c3ccccc3)c3ccccc32)c(F)c1 [Example 30, 4-(3-Benzoyl-1H-indazol-1-yl)-3-fluorobenzoic acid] |  | 47.1 | 88.9 |  |  | 
29 | O=C(O)c1ccc(-n2nc(C(=O)c3c(Cl)cccc3Cl)c3ccccc32)c(F)c1 [Example 31, 4-[3-(2,6-Dichlorobenzoyl)-1H-indazol-1-yl]-3-fluorobenzoic acid] | < 0.05 | 96.6 | 91.6 |  |  | 
30 | O=C(O)c1ccc(-n2nc(C(=O)c3c(Cl)cccc3Cl)c3cccc(F)c32)cc1 [Example 32, 4-{3-[(2,6-Dichlorophenyl)carbonyl]-7-fluoro-1H-indazol-1-yl}benzoic acid] | < 0.05 | 94.6 | 90.4 |  |  | 
31 | O=C(O)c1ccc(-n2nc(C(=O)c3c(Cl)cccc3C(F)(F)F)c3ccccc32)c(F)c1 [Example 33, 4-(3-{[2-Chloro-6-(trifluoromethyl)phenyl]carbonyl}-1H-indazol-1-yl)-3-fluorobenzoic acid] | < 0.05 | 98.1 | 94.1 |  |  | 
32 | O=C(O)c1ccc(-n2nc(C(=O)c3c(Cl)cccc3C(F)(F)F)c3ccccc32)cc1 [Example 34, 4-(3-{[2-Chloro-6-(trifluoromethyl)phenyl]carbonyl}-1H-indazol-1-yl)-benzoic acid] | < 0.05 | 96.9 | 92 |  |  | 
33 | O=C(O)c1ccc(-n2nc(C(=O)c3c(Cl)cccc3C3CC3)c3cccc(F)c32)cc1 [Example 35, 4-{3-[(2-Chloro-6-cyclopropylphenyl)carbonyl]-7-fluoro-1H-indazol-1-yl}benzoic acid] | < 0.05 | 92.3 | 89.2 |  |  | 
